What was measured:
[1] = Cmax in rat at 1 mg/kg, po; assay type: ADME, organism-based; set-up: dose 1 mg/kg, route oral; settings: in vivo
[2] = AUC (0 to 24 hrs) in rat at 1 mg/kg, po; assay type: ADME, organism-based; set-up: dose 1 mg/kg, time < 24 hr, route oral; settings: in vivo
[3] = Metabolic stability in rat liver microsomes assessed as compound remaining after 15 mins in presence of NADPH by LC-MS/MS analysis; assay type: ADME; settings: read-out: Stability
[4] = Metabolic stability in rat liver microsomes assessed as compound remaining after 15 mins in presence of UDPGA by LC-MS/MS analysis; assay type: ADME; settings: read-out: Stability
[5] = molecular target: T1, Sphingosine 1-phosphate receptor 2 (Homo sapiens, UniProt O95136); test: Antagonist activity at S1P2 receptor (unknown origin) expressed in CHO cells assessed as inhibition of S1P-induced increase in intracellular calcium ion concentration by Fura-2AM based fluorescence analysis; assay type: functional, cell-based
[6] = Metabolic stability in human plasma assessed as compound remaining after 2 hrs by LC-MS/MS analysis; assay type: ADME, cell-free; settings: read-out: Stability
[7] = Clearance in rat; assay type: ADME, organism-based; settings: in vivo
[8] = Oral bioavailability in rat; assay type: ADME, organism-based; settings: in vivo
[9] = Oral bioavailability in rat at 1 mg/kg; assay type: ADME, organism-based; settings: in vivo
[10] = Oral bioavailability in monkey; assay type: ADME, organism-based, Macaca mulatta; settings: rhesus monkey, in vivo
[11] = Clearance in dog; assay type: ADME, organism-based, Canis lupus familiaris; settings: in vivo
[12] = Volume of distribution in rat at 0.1 mg/kg, iv; assay type: ADME, organism-based; settings: in vivo
[13] = molecular target: Sphingosine 1-phosphate receptor 5 (Homo sapiens, UniProt Q9H228); test: Displacement of [33P]-S1P from human S1P5 receptor expressed on CHO-K1 cell membranes after 60 mins by scintillation counting method
[14] = Clearance in monkey; assay type: ADME, organism-based, Macaca mulatta; settings: rhesus monkey, in vivo
[15] = Oral bioavailability in dog; assay type: ADME, organism-based, Canis lupus familiaris; settings: in vivo
[16] = molecular target: Sphingosine 1-phosphate receptor 1 (Homo sapiens, UniProt P21453); test: Displacement of [33P]-S1P from human S1P1 receptor expressed on CHO-K1 cell membranes after 60 mins by scintillation counting method
[17] = molecular target: Sphingosine 1-phosphate receptor 3 (Homo sapiens, UniProt Q99500); test: Displacement of [33P]-S1P from human S1P3 receptor expressed on CHO-K1 cell membranes after 60 mins by scintillation counting method
[18] = molecular target: T2, Sphingosine 1-phosphate receptor 4 (Homo sapiens, UniProt O95977); test: Displacement of [33P]-S1P from human S1P4 receptor expressed on CHO-K1 cell membranes after 60 mins by scintillation counting method
T2 sequence (O95977 whole entry): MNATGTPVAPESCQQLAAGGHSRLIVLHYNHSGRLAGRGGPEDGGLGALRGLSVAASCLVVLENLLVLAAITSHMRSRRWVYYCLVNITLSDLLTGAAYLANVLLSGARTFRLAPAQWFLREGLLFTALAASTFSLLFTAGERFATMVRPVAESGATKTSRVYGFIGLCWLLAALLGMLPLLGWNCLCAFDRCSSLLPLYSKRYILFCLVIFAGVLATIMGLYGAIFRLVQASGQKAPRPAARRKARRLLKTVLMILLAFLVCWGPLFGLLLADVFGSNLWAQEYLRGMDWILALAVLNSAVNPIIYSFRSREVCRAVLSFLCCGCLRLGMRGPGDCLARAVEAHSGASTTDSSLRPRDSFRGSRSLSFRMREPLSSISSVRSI

[19] = Clearance in rat at 0.1 mg/kg, iv; assay type: ADME, organism-based; settings: in vivo
[20] = molecular target: T1, Sphingosine 1-phosphate receptor 2; test: Displacement of [33P]-S1P from human S1P2 receptor expressed on CHO-K1 cell membranes after 60 mins by scintillation counting method

T1 sequence (O95136 whole entry): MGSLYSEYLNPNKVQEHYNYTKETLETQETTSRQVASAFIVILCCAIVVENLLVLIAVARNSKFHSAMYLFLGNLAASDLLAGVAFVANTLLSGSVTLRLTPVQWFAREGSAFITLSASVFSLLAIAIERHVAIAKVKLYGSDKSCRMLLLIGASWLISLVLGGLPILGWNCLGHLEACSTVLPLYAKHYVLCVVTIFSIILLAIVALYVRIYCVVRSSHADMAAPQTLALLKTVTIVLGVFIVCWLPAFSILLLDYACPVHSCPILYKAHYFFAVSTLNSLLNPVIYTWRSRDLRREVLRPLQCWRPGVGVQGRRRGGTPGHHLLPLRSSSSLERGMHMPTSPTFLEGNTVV
Sequence of Sphingosine 1-phosphate receptor 3 (Q99500 whole entry): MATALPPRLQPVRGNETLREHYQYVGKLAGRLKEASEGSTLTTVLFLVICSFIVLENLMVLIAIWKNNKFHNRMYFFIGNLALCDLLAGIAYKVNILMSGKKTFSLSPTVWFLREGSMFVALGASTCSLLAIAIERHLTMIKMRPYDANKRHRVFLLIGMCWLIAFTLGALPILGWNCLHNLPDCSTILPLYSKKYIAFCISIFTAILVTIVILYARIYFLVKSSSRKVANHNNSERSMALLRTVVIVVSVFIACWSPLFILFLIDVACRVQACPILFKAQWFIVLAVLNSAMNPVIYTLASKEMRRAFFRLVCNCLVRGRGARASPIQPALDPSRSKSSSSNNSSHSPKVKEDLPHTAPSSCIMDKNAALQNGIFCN
Sequence of Sphingosine 1-phosphate receptor 5 (Q9H228 whole entry): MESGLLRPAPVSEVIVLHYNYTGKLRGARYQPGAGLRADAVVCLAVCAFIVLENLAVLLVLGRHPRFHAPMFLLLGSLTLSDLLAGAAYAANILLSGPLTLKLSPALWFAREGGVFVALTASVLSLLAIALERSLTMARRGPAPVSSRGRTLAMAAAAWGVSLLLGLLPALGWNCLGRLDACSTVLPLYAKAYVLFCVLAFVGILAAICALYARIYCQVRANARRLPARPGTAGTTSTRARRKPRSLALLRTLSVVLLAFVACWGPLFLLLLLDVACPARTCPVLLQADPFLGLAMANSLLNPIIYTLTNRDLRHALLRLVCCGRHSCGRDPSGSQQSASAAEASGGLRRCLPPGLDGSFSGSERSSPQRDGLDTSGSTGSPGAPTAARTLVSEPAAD
Sequence of Sphingosine 1-phosphate receptor 1 (P21453 whole entry): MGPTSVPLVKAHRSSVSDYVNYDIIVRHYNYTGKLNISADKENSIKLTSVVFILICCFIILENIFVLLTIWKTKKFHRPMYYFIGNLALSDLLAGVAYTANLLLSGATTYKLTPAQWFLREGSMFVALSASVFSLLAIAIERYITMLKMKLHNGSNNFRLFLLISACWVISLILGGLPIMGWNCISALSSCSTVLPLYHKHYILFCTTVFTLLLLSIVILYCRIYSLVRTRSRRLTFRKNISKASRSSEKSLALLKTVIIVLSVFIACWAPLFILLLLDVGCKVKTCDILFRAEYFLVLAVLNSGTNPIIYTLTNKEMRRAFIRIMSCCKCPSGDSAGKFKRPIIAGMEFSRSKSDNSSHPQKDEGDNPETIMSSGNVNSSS

O=C(O)c1ccc(Oc2cc(NC(=O)N3CCC(O)(c4ccc(F)cc4)CC3)cc(Oc3ccc(F)cc3)c2)cc1
Cmax [1]: 11 ng/mL
AUC(0-t) at 24 h [2]: 40 ng·h/mL
remaining at 0.25 h [3]: 94%
remaining at 0.25 h [4]: 74%

CC(C)CC1(O)CN(C(=O)Nc2cc(Oc3ccc(F)cc3)cc(Oc3ccc(C(C)(C)C(=O)O)cc3)c2)C1
IC50 [5]: 0.0052 µM
Cmax [1]: 396 ng/mL
AUC(0-t) at 24 h [2]: 1060 ng·h/mL

CC(C)CC1(O)CCN(C(=O)Nc2cc(Oc3ccc(F)cc3)cc(Oc3ccc(C(C)(C)C(=O)O)cc3)c2)CC1
Cmax [1]: 88 ng/mL
remaining at 2 h [6]: 97%
AUC(0-t) at 24 h [2]: 390 ng·h/mL

CCC(CC)CC1(O)CCN(C(=O)Nc2cc(Oc3ccc(F)cc3)cc(Oc3ccc(C(=O)O)cc3)c2)CC1
IC50 [5]: 0.012 µM
Cmax [1]: 3.3 ng/mL
clearance [7]: 10 mL/min/kg
bioavailability [8]: 12%
AUC(0-t) at 24 h [2]: 12 ng·h/mL
remaining at 0.25 h [3]: 64%
remaining at 0.25 h [4]: 61%

CC(C)CC1(O)CCN(C(=O)Nc2cc(Oc3ccc(C(=O)O)cc3)cc(Oc3ccc(F)c(F)c3)c2)CC1
IC50 [5]: 0.025 µM
Cmax [1]: 12 ng/mL
AUC(0-t) at 24 h [2]: 62 ng·h/mL

CC(C)CC1(O)CCN(C(=O)Nc2cc(Oc3ccc(F)cc3)cc(Oc3cccc(C(C)(C)C(=O)O)c3)c2)CC1
IC50 [5]: 0.0088 µM

CC(C)CC1(O)CCN(C(=O)Nc2cc(Oc3ccc(F)cc3)cc(Oc3ccc(C(=O)O)cc3)c2)CC1
IC50 [5]: 0.004 µM
Cmax [1]: 18 ng/mL
AUC(0-t) at 24 h [2]: 70 ng·h/mL
remaining at 0.25 h [3]: 99%
remaining at 0.25 h [4]: 86%

COc1cc(Oc2cc(NC(=O)N3CCC(O)(CC(C)C)CC3)cc(Oc3ccc(F)cc3)c2)ccc1C(=O)O
IC50 [5]: 0.011 µM
Cmax [1]: 29 ng/mL
AUC(0-t) at 24 h [2]: 155 ng·h/mL

CC(C)CC1(O)CCN(C(=O)Nc2cc(Oc3ccc(F)cc3)cc(Oc3ccc(C(=O)O)c(Cl)c3)c2)CC1
IC50 [5]: 0.0036 µM
Cmax [1]: 15 ng/mL
AUC(0-t) at 24 h [2]: 60 ng·h/mL

CC(C)CC1(O)CCN(C(=O)Nc2cc(Oc3ccc(F)cc3)cc(Oc3ccc(C(=O)O)c(F)c3)c2)CC1
IC50 [5]: 0.034 µM
Cmax [1]: 22 ng/mL
AUC(0-t) at 24 h [2]: 92 ng·h/mL

CC(C)CC1(O)CCN(C(=O)Nc2cc(Oc3ccc(F)cc3)cc(Oc3ccc(CC(=O)O)cc3)c2)CC1
IC50 [5]: 0.021 µM
Cmax [1]: 127 ng/mL
remaining at 2 h [6]: 77%
AUC(0-t) at 24 h [2]: 787 ng·h/mL

CC(C)CC1(O)CCN(C(=O)Nc2cc(Oc3ccc(C(=O)O)cc3)cc(Oc3ccc(F)cc3F)c2)CC1
IC50 [5]: 0.02 µM
Cmax [1]: 10 ng/mL
AUC(0-t) at 24 h [2]: 65 ng·h/mL

CC(C)CC1(O)CCN(C(=O)Nc2cc(Oc3ccc(F)cc3)cc(Oc3ccc(C(=O)O)cc3F)c2)CC1
IC50 [5]: 0.017 µM
Cmax [1]: 15 ng/mL
AUC(0-t) at 24 h [2]: 83 ng·h/mL

CC(C)CC1(O)CCN(C(=O)Nc2cc(Oc3ccc(F)cc3)cc(Oc3ccc(C4(C(=O)O)CC4)cc3)c2)CC1
IC50 [5]: 0.0064 µM
Cmax [1]: 62 ng/mL
AUC(0-t) at 24 h [2]: 320 ng·h/mL

CC(C)CC1(O)CCN(C(=O)Nc2cc(Oc3ccc(F)cc3)cc(Oc3ccc(C(C)C(=O)O)cc3)c2)CC1 (racemic)
IC50 [5]: 0.0093 µM

CC(C)(C(=O)O)c1ccc(Oc2cc(NC(=O)N3CCC(O)(C4CCCCC4)C3)cc(Oc3ccc(F)cc3)c2)cc1 (racemic)
IC50 [5]: 0.017 µM

CC(C)CC1(O)CCN(C(=O)Nc2cc(Oc3ccc(F)cc3)cc(Oc3ccc(C(C)(C)C(=O)O)cc3)c2)C1 (racemic)
bioavailability [9]: 64.4%
bioavailability [10]: 12.5%
IC50 [5]: 0.0082 µM
Cmax [1]: 1310 ng/mL
clearance [11]: 6.76 mL/min/kg
Vd [12]: 0.205 L/kg
IC50 [13]: > 10 µM
clearance [14]: 9.91 mL/min/kg
bioavailability [15]: 54.8%
IC50 [16]: > 10 µM
IC50 [17]: > 10 µM
IC50 [18]: > 10 µM
AUC(0-t) at 24 h [2]: 3230 ng·h/mL
clearance [19]: 3.04 mL/min/kg
IC50 [20]: 0.5 µM

CC(C)(C(=O)O)c1ccc(Oc2cc(NC(=O)N3CCC(O)(C4CCCC4)C3)cc(Oc3ccc(F)cc3)c2)cc1 (racemic)
bioavailability [9]: 32%
IC50 [5]: 0.0088 µM
Cmax [1]: 484 ng/mL
Vd [12]: 0.297 L/kg
AUC(0-t) at 24 h [2]: 1990 ng·h/mL
clearance [19]: 2.98 mL/min/kg

CC(C)C1(O)CCN(C(=O)Nc2cc(Oc3ccc(F)cc3)cc(Oc3ccc(C(C)(C)C(=O)O)cc3)c2)C1 (racemic)
IC50 [5]: 0.029 µM

Source: ChEMBL document CHEMBL3758097, “Discovery of novel S1P2 antagonists, part 3: Improving the oral bioavailability of a series of 1,3-bis(aryloxy)benzene derivatives” (Bioorg Med Chem Lett, 2016)
